Test results taken from ChEMBL document CHEMBL1811803, “Preparation of allosamidin and demethylallosamidin photoaffinity probes and analysis of allosamidin-binding proteins in asthmatic mice” (Bioorg Med Chem, 2011).
The source made the active and inactive calls. No cut-off for these calls is given here.

Key:
[1] = Inhibition of Trichoderma chitinase T1 using [4MU-(GlcNAc)3] as substrate
[2] = molecular target: Chitinase-like protein 3 (Mus musculus) (UniProt O35744); test: Binding affinity to Ym1 in IL-13-induced asthmatic A/J mouse BAL fluid after 1 hrs by photoaffinity labeling study
Chitinase-like protein 3 (Mus musculus), sequence (O35744 whole entry): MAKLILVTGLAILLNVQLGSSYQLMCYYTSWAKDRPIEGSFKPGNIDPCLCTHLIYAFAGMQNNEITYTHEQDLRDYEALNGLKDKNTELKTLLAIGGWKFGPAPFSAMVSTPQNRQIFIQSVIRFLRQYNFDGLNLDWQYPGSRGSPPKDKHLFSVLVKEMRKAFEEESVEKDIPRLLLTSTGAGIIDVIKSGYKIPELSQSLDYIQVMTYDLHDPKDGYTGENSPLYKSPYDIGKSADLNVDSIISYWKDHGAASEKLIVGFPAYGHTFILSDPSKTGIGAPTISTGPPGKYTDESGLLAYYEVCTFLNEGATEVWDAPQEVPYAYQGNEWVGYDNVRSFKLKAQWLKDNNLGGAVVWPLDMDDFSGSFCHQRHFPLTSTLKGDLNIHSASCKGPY

[3] = molecular target: Chitinase-like protein 3 (Mus musculus) (UniProt O35744); test: Binding affinity to recombinant His-tagged mouse Ym1 expressed in Escherichia coli after 1 hrs by photoaffinity labeling study
[4] = test system: Alpha-1-antiproteinase (Mus musculus); test: Binding affinity to alpha-1 antitrypsin in IL-13-induced asthmatic A/J mouse BAL fluid after 1 hrs by photoaffinity labeling study
[5] = Stability of the compound in 0.05 M HCl for 30 mins at room temperature; assay type: physicochemical; details: buffer, 0.5 h
[6] = Stability of the compound in 0.05 M NaOH for 30 mins at room temperature; assay type: physicochemical; details: 0.5 h

Compound: CC(=O)N[C@H]1[C@H](O[C@H]2[C@@H](O)[C@@H](NC(C)=O)[C@H](O[C@H]3[C@H](O)[C@H]4N=C(N(C)C)O[C@H]4[C@@H]3CO)O[C@@H]2CO)O[C@H](CO)[C@@H](O)[C@H]1O [ALLOSAMIDIN]
- IC50 [1]: 5.4 µM

Compound: CNC1=N[C@@H]2[C@@H](O)[C@H](O[C@@H]3O[C@H](CO)[C@@H](O[C@@H]4O[C@H](CO)[C@@H](O)[C@@H](O)[C@H]4NC(C)=O)[C@@H](O)[C@H]3NC(=O)CCSSCCNC(=O)C(CCCCNC(=O)CCCCC3SCC4NC(=O)NC43)NC(=O)c3ccc(N=[NH+][NH-])cc3)[C@@H](CO)[C@@H]2O1 (some centres not stated)
- IC50 [1]: 155 µM

Compound: CC(=O)N[C@H]1[C@H](O[C@H]2[C@H](O)[C@H]3N=C(N(C)C)O[C@H]3[C@@H]2CO)O[C@H](CO)[C@@H](O[C@@H]2O[C@H](CO)[C@@H](O)[C@@H](O)[C@H]2N)[C@H]1O
- IC50 [1]: 34.3 µM

Compound: CNC1=N[C@@H]2[C@@H](O)[C@H](O[C@@H]3O[C@H](CO)[C@@H](O[C@@H]4O[C@H](CO)[C@@H](O)[C@@H](O)[C@H]4NC(C)=O)[C@@H](O)[C@H]3N)[C@@H](CO)[C@@H]2O1
- IC50 [1]: 308 µM

Compound: CC(=O)N[C@H]1[C@H](O[C@H]2[C@@H](O)[C@@H](NC(=O)CCSSCCNC(=O)C(CCCCNC(=O)CCCCC3SCC4NC(=O)NC43)NC(=O)c3ccc(N=[NH+][NH-])cc3)[C@H](O[C@H]3[C@H](O)[C@H]4N=C(N(C)C)O[C@H]4[C@@H]3CO)O[C@@H]2CO)O[C@H](CO)[C@@H](O)[C@H]1O (some centres not stated)
- IC50 [1]: 125 µM

Compound: CNC1=N[C@@H]2[C@@H](O)[C@H](O[C@@H]3O[C@H](CO)[C@@H](O[C@@H]4O[C@H](CO)[C@@H](O)[C@@H](O)[C@H]4NC(C)=O)[C@@H](O)[C@H]3NC(=O)CCSSCCNC(=O)CCCCC3SCC4NC(=O)NC43)[C@@H](CO)[C@@H]2O1 (some centres not stated)
- IC50 [1]: 49.7 µM

Compound: CC(=O)N[C@H]1[C@H](O[C@H]2[C@H](O)[C@H]3N=C(N(C)C)O[C@H]3[C@@H]2CO)O[C@H](CO)[C@@H](O[C@@H]2O[C@H](CO)[C@@H](O)[C@@H](O)[C@H]2NC(=O)CCSSCCNC(=O)C(CCCCNC(=O)CCCCC2SCC3NC(=O)NC32)NC(=O)c2ccc(N=[NH+][NH-])cc2)[C@H]1O (some centres not stated)
- IC50 [1]: 10.7 µM
- Activity [2]: Active
- Activity [3]: Active
- Activity [4]: Active

Compound: CC(=O)N[C@H]1[C@H](O[C@H]2[C@@H](O)[C@@H](NC(=O)CCSSCCNC(=O)CCCCC3SCC4NC(=O)NC43)[C@H](O[C@H]3[C@H](O)[C@H]4N=C(N(C)C)O[C@H]4[C@@H]3CO)O[C@@H]2CO)O[C@H](CO)[C@@H](O)[C@H]1O (some centres not stated)
- IC50 [1]: 50.3 µM

Compound: CNC1=N[C@@H]2[C@@H](O)[C@H](O[C@@H]3O[C@H](CO)[C@@H](O[C@@H]4O[C@H](CO)[C@@H](O)[C@@H](O)[C@H]4NC(C)=O)[C@@H](O)[C@H]3NC(C)=O)[C@@H](CO)[C@@H]2O1 [DEMETHYLALLOSAMIDIN]
- IC50 [1]: 10.3 µM

Compound: CNC1=N[C@@H]2[C@@H](O)[C@H](O[C@@H]3O[C@H](CO)[C@@H](O[C@@H]4O[C@H](CO)[C@@H](O)[C@@H](O)[C@H]4NC(=O)CCSSCCNC(=O)CCCCC4SCC5NC(=O)NC54)[C@@H](O)[C@H]3NC(C)=O)[C@@H](CO)[C@@H]2O1 (some centres not stated)
- IC50 [1]: 7.9 µM

Compound: CC(=O)N[C@H]1[C@H](O[C@H]2[C@@H](O)[C@@H](N)[C@H](O[C@H]3[C@H](O)[C@H]4N=C(N(C)C)O[C@H]4[C@@H]3CO)O[C@@H]2CO)O[C@H](CO)[C@@H](O)[C@H]1O
- IC50 [1]: 69.3 µM

Compound: CNC1=N[C@@H]2[C@@H](O)[C@H](O[C@@H]3O[C@H](CO)[C@@H](O[C@@H]4O[C@H](CO)[C@@H](O)[C@@H](O)[C@H]4NC(=O)CCSSCCNC(=O)C(CCCCNC(=O)CCCCC4SCC5NC(=O)NC54)NC(=O)c4ccc(N=[NH+][NH-])cc4)[C@@H](O)[C@H]3NC(C)=O)[C@@H](CO)[C@@H]2O1 (some centres not stated)
- IC50 [1]: 7.7 µM
- Activity [2]: Active
- Activity [3]: Active
- Activity [4]: Active

Compound: CNC1=N[C@@H]2[C@@H](O)[C@H](O[C@@H]3O[C@H](CO)[C@@H](O[C@@H]4O[C@H](CO)[C@@H](O)[C@@H](O)[C@H]4N)[C@@H](O)[C@H]3NC(C)=O)[C@@H](CO)[C@@H]2O1
- IC50 [1]: 82.9 µM

Compound: CC(=O)N[C@H]1[C@H](O[C@H]2[C@H](O)[C@H]3N=C(N(C)C)O[C@H]3[C@@H]2CO)O[C@H](CO)[C@@H](O[C@@H]2O[C@H](CO)[C@@H](O)[C@@H](O)[C@H]2NC(=O)CCSSCCNC(=O)CCCCC2SCC3NC(=O)NC32)[C@H]1O (some centres not stated)
- IC50 [1]: 3.6 µM
- Stability [5]: Stable
- Stability [6]: Stable
